Read-outs that look alike come from different tables or passages of the source.
Experiments:
A. baumannii A14 [1] = assay: MIC without and with sub-inhibitory polymyxin B (Example 4); type: cell-based, Acinetobacter baumannii; conditions: A. baumannii A14; without PB; 2nd experiment
A. baumannii A329 [2] = assay: Preliminary MBC without and with sub-inhibitory polymyxin B (Example 4); type: cell-based, Acinetobacter baumannii; conditions: for MBC: 2nd experiment
[3] = test system: Acinetobacter sp. (H064200250); assay: MIC without and with sub-inhibitory polymyxin B (Example 4); type: cell-based
A. baumannii A489 [4] = assay: Preliminary MBC without and with sub-inhibitory polymyxin B (Example 4); type: cell-based, Acinetobacter baumannii; conditions: A. baumannii A489, preliminary MBC; for MBC: 2nd experiment
A. baumannii NCTC 13301 [5] = assay: MIC without and with sub-inhibitory polymyxin B (Example 4); type: cell-based, Acinetobacter baumannii; conditions: A. baumannii NCTC 13301, 1st experiment
A. baumannii A390 = assay: Preliminary MBC without and with sub-inhibitory polymyxin B (Example 4); type: cell-based, Acinetobacter baumannii; conditions: for MBC: 2nd experiment
Summary of the method: (§1)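 Bactericidal endpoint scored visually on plates incubated at 37° C (18-20 hours): the lowest concentration where growth fell about 90% versus the positive control, generally leaving one colony or none.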

A. baumannii A14 [6] = assay: as above; type: cell-based, Acinetobacter baumannii; conditions: 2nd experiment
Summary of the method: as §1

A. baumannii A473 = assay: as above; type: cell-based, Acinetobacter baumannii; conditions: for MBC: 2nd experiment
Summary of the method: as §1

A. baumannii NCTC 13301 [7] = assay: as above; type: cell-based, Acinetobacter baumannii; conditions: A. baumannii NCTC 13301, preliminary MBC; for MBC: 2nd experiment
Summary of the method: as §1

A. baumannii A329 [8] = assay: MIC without and with sub-inhibitory polymyxin B (Example 4); type: cell-based, Acinetobacter baumannii; conditions: A. baumannii A329
A. baumannii ATCC 19606 = assay: Preliminary MBC without and with sub-inhibitory polymyxin B (Example 4); type: cell-based, Acinetobacter baumannii; conditions: for MBC: 2nd experiment
A. baumannii J2 = assay: MIC without and with sub-inhibitory polymyxin B (Example 4); type: cell-based, Acinetobacter baumannii; conditions: A. baumannii J2
A. baumannii A489 [9] = assay: as above; type: cell-based, Acinetobacter baumannii; conditions: A. baumannii A489
[10] = Acinetobacter spp. H064200250 (OXA51), +[…] PB, 2nd experiment
[11] = +[…] polymyxin B, 1st experiment
[12] = without polymyxin B, 1st experiment

Question: Which MIC (A. baumannii A14 [1]) does the source give for “8-[(3S)-3-aminocyclopentyl]-1- cyclopropyl-7-fluoro-9-methyl- 4-oxo-quinolizine-3-carboxylic acid [Compound 10, reference compound]” here?
Answer: Its MIC is 2 µg/mL.

Question: What about the MBC (A. baumannii A329 [2]; A. baumannii A329, +0.06 μg/ml PB) of the same substance?
Answer: Its MBC is 2 µg/mL.

Question: And the MBC (A. baumannii A329 [2]; A. baumannii A329, without PB)?
Answer: Its MBC is 2 µg/mL.

Question: What about the “MBC without PB” value (A. baumannii A329 [2]; A. baumannii A329, without polymyxin B, 1st experiment) of the same substance?
Answer: Its value is 2 µg/mL.

Question: What about the “MIC +[…] PB” value [3] of the same substance?
Answer: Its value is 1 µg/mL.

Question: What about the “MIC without PB/MIC + PB” value [3] of the same substance?
Answer: Its value is 2.

Question: What about the MIC [3, 10] of the same substance?
Answer: Its MIC is 1 µg/mL.

Question: What about the “MIC without PB/MIC + PB” value [3, 10] of the same substance?
Answer: Its value is 1.

Question: What about the MIC ([3]; Acinetobacter spp. H064200250 (OXA51), without PB, 2nd experiment) of the same substance?
Answer: The MIC was 1 µg/mL.

Question: What about the “MIC without PB” value ([3]; Acinetobacter spp. H064200250, without polymyxin B, 1st experiment) of the same substance?
Answer: The value was 2 µg/mL.

Question: What about the MBC (A. baumannii A489 [4]; +[…] PB) of the same substance?
Answer: The MBC was 1 µg/mL.

Question: What about the “MBC +[…] PB” value (A. baumannii A489 [4]; [11]) of the same substance?
Answer: The value was 1.00 µg/mL.

Question: What about the MBC (A. baumannii A489 [4]; without PB) of the same substance?
Answer: The MBC was 1 µg/mL.

Question: And the “MBC without PB” value (A. baumannii A489 [4]; [12])?
Answer: Its value is 1 µg/mL.

Question: And the “MIC +[…] PB” value (A. baumannii NCTC 13301 [5]; +[…] polymyxin B)?
Answer: The value was 1.00 µg/mL.

Question: And the “MIC without PB/MIC + PB” value (A. baumannii NCTC 13301 [5]; ratio, PB […])?
Answer: The value was 8.

Question: And the “MIC without PB” value (A. baumannii NCTC 13301 [5]; without polymyxin B)?
Answer: Its value is 8 µg/mL.

Question: What about the MBC (A. baumannii A390; A. baumannii A390, +0.06 μg/ml PB) of the same substance?
Answer: Its MBC is 0.5 µg/mL.

Question: What about the MBC (A. baumannii A390; A. baumannii A390, without PB) of the same substance?
Answer: The MBC was 1 µg/mL.

Question: And the “MBC without PB” value (A. baumannii A390; A. baumannii A390, without polymyxin B, 1st experiment)?
Answer: The value was 1 µg/mL.

Question: What about the MBC (A. baumannii A14 [6]; A. baumannii A14, +0.06 μg/ml PB) of the same substance?
Answer: Its MBC is 1 µg/mL.

Question: And the MBC (A. baumannii A14 [6]; A. baumannii A14, without PB)?
Answer: The MBC was 2 µg/mL.

Question: And the MBC (A. baumannii A473; A. baumannii A473, +0.06 μg/ml PB)?
Answer: Its MBC is 0.5 µg/mL.

Question: What about the MBC (A. baumannii A473; A. baumannii A473, without PB) of the same substance?
Answer: Its MBC is 1 µg/mL.

Question: What about the “MBC without PB” value (A. baumannii A473; A. baumannii A473, without polymyxin B, 1st experiment) of the same substance?
Answer: Its value is 0.5 µg/mL.

Question: What about the MBC (A. baumannii NCTC 13301 [7]; +[…] PB) of the same substance?
Answer: Its MBC is 0.5 µg/mL.

Question: And the “MBC +[…] PB” value (A. baumannii NCTC 13301 [7]; [11])?
Answer: Its value is 1.00 µg/mL.

Question: What about the MBC (A. baumannii NCTC 13301 [7]; without PB) of the same substance?
Answer: The MBC was 2 µg/mL.

Question: What about the “MBC without PB” value (A. baumannii NCTC 13301 [7]; [12]) of the same substance?
Answer: Its value is 2 µg/mL.

Question: What about the MIC (A. baumannii A329 [8]; +0.06 μg/ml PB, 2nd experiment) of the same substance?
Answer: The MIC was 1 µg/mL.

Question: And the “MIC without PB/MIC + PB” value (A. baumannii A329 [8]; +0.06 μg/ml PB, 2nd experiment)?
Answer: Its value is 2.

Question: What about the “MIC read with alamar blue” value (A. baumannii A329 [8]; +0.06 μg/ml PB, value in parentheses, 2nd experiment) of the same substance?
Answer: Its value is 2 µg/mL.

Question: And the MIC (A. baumannii A329 [8]; without PB, 2nd experiment)?
Answer: The MIC was 2 µg/mL.

Question: What about the “MIC without PB” value (A. baumannii A329 [8]; [12]) of the same substance?
Answer: The value was 8 µg/mL.

Question: What about the MBC (A. baumannii ATCC 19606; A. baumannii ATCC 19606, +0.06 μg/ml PB) of the same substance?
Answer: Its MBC is 0.03 µg/mL.

Question: And the “MBC +0.06 μg/ml PB” value (A. baumannii ATCC 19606; A. baumannii ATCC 19606, +0.06 μg/ml polymyxin B, 1st experiment)?
Answer: Its value is 0.03 µg/mL.

Question: And the MBC (A. baumannii ATCC 19606; A. baumannii ATCC 19606, without PB)?
Answer: Its MBC is 0.125 µg/mL.

Question: And the MIC (A. baumannii J2; +[…] PB, 2nd experiment)?
Answer: The MIC was 0.25 µg/mL.

Question: What about the “MIC without PB/MIC + PB” value (A. baumannii J2; +[…] PB, 2nd experiment) of the same substance?
Answer: The value was 8.

Question: What about the “MIC +[…] PB” value (A. baumannii J2; [11]) of the same substance?
Answer: The value was 1 µg/mL.

Question: What about the “MIC without PB/MIC + PB” value (A. baumannii J2; ratio, PB […], 1st experiment) of the same substance?
Answer: Its value is 2.

Question: And the MIC (A. baumannii J2; without PB, 2nd experiment)?
Answer: The MIC was 2 µg/mL.

Question: What about the “MIC without PB” value (A. baumannii J2; [12]) of the same substance?
Answer: Its value is 2 µg/mL.

Question: What about the MIC (A. baumannii A489 [9]; +[…] PB, 2nd experiment) of the same substance?
Answer: Its MIC is 0.5 µg/mL.

Question: And the “MIC without PB/MIC + PB” value (A. baumannii A489 [9]; +[…] PB, 2nd experiment)?
Answer: Its value is 2.

Question: What about the “MIC +[…] PB” value (A. baumannii A489 [9]; [11]) of the same substance?
Answer: The value was 1.00 µg/mL.

Question: And the “MIC without PB/MIC + PB” value (A. baumannii A489 [9]; ratio, PB […], 1st experiment)?
Answer: The value was 1.

Question: And the MIC (A. baumannii A489 [9]; without PB, 2nd experiment)?
Answer: Its MIC is 1 µg/mL.

Question: What about the “MIC without PB” value (A. baumannii A489 [9]; [12]) of the same substance?
Answer: The value was 1 µg/mL.
